This passage reports T/C results from PubChem BioAssay AID328 (DTP/NCI, 2004).

Values joined by “and” are separate entries in the source; they are usually repeats but may differ in a detail not shown here. Equal entries are not always repeated. Inconclusive results and toxic doses are left out.

For this test, the system named is BDF1 mice, P388 leukemia ip, median survival T/C. The test is described as follows: NCI In Vivo Anticancer Drug Screen. Data for tumor model P388 Leukemia (intraperitoneal) in B6D2F1 (BDF1) mice. To be noted: endpoint: median survival time, higher = longer survival. The method, boiled down: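 Antitumour effect was judged in vivo: survival in drug-treated mice, normalised to that of vehicle-dosed controls, gives the reported T/C.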

Setting [1] is: dose: 25.0 mg/kg/injection, schedule: Q01DX009 (ip), vehicle: saline with Tween-80.
The mark [2] stands for this setting: dose: 50.0 mg/kg/injection, schedule: Q01DX009 (ip), vehicle: saline with Tween-80.
Setting [3] is: dose: 100.0 mg/kg/injection, schedule: Q01DX009 (ip), vehicle: saline with Tween-80.
Setting [4] is: dose: 400.0 mg/kg/injection, schedule: Q01DX009 (ip), vehicle: saline with Tween-80.
[5] abbreviates: dose: 100.0 mg/kg/injection, schedule: Q01DX001 (ip), vehicle: Klucel (hydroxypropylcellulose) (HPC).
Setting [6] is: dose: 100.0 mg/kg/injection, schedule: Q04DX003 (ip), vehicle: Klucel (hydroxypropylcellulose) (HPC).
Where [7] appears, read: dose: 200.0 mg/kg/injection, schedule: Q01DX001 (ip), vehicle: Klucel (hydroxypropylcellulose) (HPC).
[8] abbreviates: dose: 200.0 mg/kg/injection, schedule: Q01DX009 (ip), vehicle: saline with Tween-80.
[9] abbreviates: dose: 200.0 mg/kg/injection, schedule: Q04DX003 (ip), vehicle: Klucel (hydroxypropylcellulose) (HPC).
[10] abbreviates: dose: 400.0 mg/kg/injection, schedule: Q01DX001 (ip), vehicle: Klucel (hydroxypropylcellulose) (HPC).
The mark [11] stands for this setting: dose: 100.0 mg/kg/injection, schedule: Q01DX009 (ip), vehicle: Klucel (hydroxypropylcellulose) (HPC).
Where [12] appears, read: dose: 12.5 mg/kg/injection, schedule: Q01DX009 (ip), vehicle: saline with Tween-80.
[13] abbreviates: dose: 25.0 mg/kg/injection, schedule: Q01DX009 (ip), vehicle: saline.
Where [14] appears, read: dose: 50.0 mg/kg/injection, schedule: Q01DX009 (ip), vehicle: saline.
Setting [15] is: dose: 100.0 mg/kg/injection, schedule: Q01DX009 (ip), vehicle: saline.
Where [16] appears, read: dose: 100.0 mg/kg/injection, schedule: Q04DX003 (ip), vehicle: saline with Tween-80.
Setting [17] is: dose: 200.0 mg/kg/injection, schedule: Q04DX003 (ip), vehicle: saline with Tween-80.
[18] abbreviates: dose: 400.0 mg/kg/injection, schedule: Q04DX003 (ip), vehicle: saline with Tween-80.

In the case of `O=C1NC(=O)C(CSCc2ccccc2)(CSCc2ccccc2)N1`, the T/C is 101 % of control (dose: 3.12 mg/kg/injection, schedule: Q04DX003 (ip), vehicle: saline with Tween-80); 102 % of control (dose: 6.25 mg/kg/injection, schedule: Q04DX003 (ip), vehicle: saline with Tween-80); 99 % of control (dose: 12.5 mg/kg/injection, schedule: Q04DX003 (ip), vehicle: saline with Tween-80); 99 % of control under setting [1]; 98 % of control (dose: 25.0 mg/kg/injection, schedule: Q04DX003 (ip), vehicle: saline with Tween-80); 107 % of control under setting [2]. Also, the T/C under setting [3] is 92 % of control and the T/C under setting [4] is 86 % of control.
In the case of `[O-]c1on[n+](C2CCCCC2)c1-c1ccccc1`, the T/C is 105 % of control (dose: 50.0 mg/kg/injection, schedule: Q04DX003 (ip), vehicle: Klucel (hydroxypropylcellulose) (HPC)); 109 % of control under setting [5]; 92 % of control under setting [3]; 100 % of control under setting [6]; 104 % of control under setting [7]; 92 % of control under setting [8]. The T/C runs as follows: under setting [9], 100 % of control; under setting [10], 100 % of control.
As for `CC(=O)Nc1ccc2c(c1)Cc1cc(NC=O)ccc1-2`, the T/C is, setting by setting: (dose: 0.75 mg/kg/injection, schedule: Q01DX009 (ip), vehicle: Klucel (hydroxypropylcellulose) (HPC)) 89 % of control; (dose: 3.0 mg/kg/injection, schedule: Q01DX009 (ip), vehicle: Klucel (hydroxypropylcellulose) (HPC)) 92 % of control; (dose: 12.5 mg/kg/injection, schedule: Q01DX009 (ip), vehicle: Klucel (hydroxypropylcellulose) (HPC)) 96 % of control; under setting [11], 91 % of control; under setting [6], 87 % of control.
With `[Cl][Pt+2][Cl].[NH-]CC1(C[NH-])CCC1`, the T/C (dose: 0.4 mg/kg/injection, schedule: Q01DX009 (ip), vehicle: suspension in saline) is 156 % of control; the T/C (dose: 0.79 mg/kg/injection, schedule: Q01DX009 (ip), vehicle: suspension in saline) was 154 % of control; the T/C (dose: 1.56 mg/kg/injection, schedule: Q01DX009 (ip), vehicle: suspension in saline) is 250 % of control; the T/C (dose: 3.12 mg/kg/injection, schedule: Q01DX009 (ip), vehicle: suspension in saline) was 250 % of control; the T/C (dose: 6.25 mg/kg/injection, schedule: Q01DX009 (ip), vehicle: suspension in saline) was 169 % of control; the T/C (dose: 12.5 mg/kg/injection, schedule: Q01DX009 (ip), vehicle: suspension in saline) is 104 % of control.
Consider `CC(C)(C)c1cc(I)c(O)c(CN)c1`, for which the T/C is, setting by setting: under setting [12], 105 % of control; (dose: 12.5 mg/kg/injection, schedule: Q01DX009 (ip), vehicle: saline) 95 % of control; under setting [1], 109 % of control; under setting [13], 104 % of control; under setting [2], 114 % of control; under setting [14], 104 % of control. In addition, the T/C under setting [3] is 114 % of control.
On to `Cc1ccccc1OS(=O)(=O)C(F)(F)C(F)(F)C(F)(F)C(F)(F)F`, for which the T/C is, setting by setting: under setting [14], 100 % of control; under setting [15], 100 % of control; (dose: 200.0 mg/kg/injection, schedule: Q01DX009 (ip), vehicle: saline) 106 % of control.
As for `BrC1C2CC3C(C2)C13` (stereo unspecified), the T/C reads like this: under setting [11], 100 % of control; (dose: 200.0 mg/kg/injection, schedule: Q01DX009 (ip), vehicle: Klucel (hydroxypropylcellulose) (HPC)) 86 % of control; (dose: 400.0 mg/kg/injection, schedule: Q01DX009 (ip), vehicle: Klucel (hydroxypropylcellulose) (HPC)) 109 % of control.
In the case of `Cc1cc(C(=O)c2ccccn2)c2cccc(C(F)(F)F)c2n1`, the T/C was 95 % of control under setting [12]; 95 % of control under setting [16]; 86 % of control under setting [8]; 90 % of control under setting [17]; 90 % of control under setting [18].
As to `NNC(=O)c1ccc(Br)cc1`, the T/C runs as follows: (dose: 50.0 mg/kg/injection, schedule: Q01DX009 (ip), vehicle: Klucel (hydroxypropylcellulose) (HPC)) 96 % of control; under setting [11], 92 % of control; under setting [6], 95 % of control; under setting [9], 91 % of control.
For `O=Cc1ccc(OC(=O)Nc2ccccc2)cc1`, the T/C reads like this: under setting [16], 113 % of control; under setting [17], 122 % of control; under setting [18], 86 % of control.
For the molecule `CCCCCC(Br)C(Br)CC(Br)C(Br)CCCCCCCC(=O)O` (stereo unspecified), the T/C runs as follows: under setting [5], 100 % of control; under setting [7], 109 % of control; under setting [10], 104 % of control.
Take `C1CN1P1(N2CC2)=NP(N2CC2)(N2CC2)=NP(N2CC2)(N2CC2)=NP(N2CC2)(N2CC2)=N1`: the T/C is 116 % of control (dose: 0.27 mg/kg/injection, schedule: Q01DX009 (ip), vehicle: saline); 112 % of control (dose: 0.4 mg/kg/injection, schedule: Q01DX009 (ip), vehicle: saline); 172 % of control (dose: 0.62 mg/kg/injection, schedule: Q01DX009 (ip), vehicle: saline); 113 % of control (dose: 0.63 mg/kg/injection, schedule: Q04DX003 (ip), vehicle: saline); 159 % of control (dose: 1.25 mg/kg/injection, schedule: Q01DX009 (ip), vehicle: saline); 154 % of control (dose: 1.9 mg/kg/injection, schedule: Q04DX003 (ip), vehicle: saline). For the same molecule, the T/C is, setting by setting: (dose: 2.5 mg/kg/injection, schedule: Q01DX009 (ip), vehicle: saline) 200 % of control; (dose: 2.5 mg/kg/injection, schedule: Q04DX003 (ip), vehicle: saline) 166 % of control; (dose: 2.9 mg/kg/injection, schedule: Q04DX003 (ip), vehicle: saline) 168 % of control; (dose: 4.4 mg/kg/injection, schedule: Q04DX003 (ip), vehicle: saline) 186 % of control; (dose: 5.0 mg/kg/injection, schedule: Q04DX003 (ip), vehicle: saline) 219 % of control; (dose: 6.6 mg/kg/injection, schedule: Q01DX009 (ip), vehicle: saline) 240 % of control. Moreover, the T/C is, setting by setting: (dose: 10.0 mg/kg/injection, schedule: Q04DX003 (ip), vehicle: saline) 225 % of control and 223 % of control; (dose: 13.2 mg/kg/injection, schedule: Q04DX003 (ip), vehicle: saline) 100 % of control; (dose: 13.3 mg/kg/injection, schedule: Q04DX003 (ip), vehicle: saline) 223 % of control; (dose: 15.0 mg/kg/injection, schedule: Q01DX009 (ip), vehicle: saline) 155 % of control; (dose: 30.0 mg/kg/injection, schedule: Q04DX003 (ip), vehicle: saline) 285 % of control; (dose: 40.0 mg/kg/injection, schedule: Q04DX003 (ip), vehicle: saline) 105 % of control.
For the molecule `C[N+](C)(C)Cc1ccccc1C[N+](C)(C)C`, the T/C under setting [13] was 116 % of control, the T/C under setting [14] is 112 % of control and the T/C under setting [15] was 112 % of control.
On to `C=Cc1c(C)c(O)cc2c1-c1ccc(O)c(C)c1CC2`, for which the T/C runs as follows: (dose: 6.25 mg/kg/injection, schedule: Q01DX009 (ip), vehicle: saline with Tween-80) 104 % of control; under setting [12], 104 % of control; under setting [1], 104 % of control; under setting [2], 100 % of control.
On to `ClC1=C(Cl)C2(Cl)C3(Cl)C(Cl)=C(Cl)C(Cl)(C3c3ccccc3)C2(Cl)C1c1ccccc1` (stereo unspecified), for which the T/C under setting [3] was 95 % of control; the T/C (dose: 100.0 mg/kg/injection, schedule: Q04DX003 (ip), vehicle: saline sonified) is 100 % of control; the T/C under setting [8] is 95 % of control; the T/C (dose: 200.0 mg/kg/injection, schedule: Q04DX003 (ip), vehicle: saline sonified) was 104 % of control; the T/C under setting [4] is 95 % of control; the T/C (dose: 400.0 mg/kg/injection, schedule: Q04DX003 (ip), vehicle: saline sonified) is 90 % of control.
